# Assay results: patent US10604523B2, “1-aryl-4-methyl-[1,2,4]triazolo[4,3-a]quinoxaline derivatives” (Janssen Pharmaceutica NV, priority 2011, dated 2020)
# Where two headings read alike, the source gives them in different places.
# Columns and labels:
# [1] = Plasma radiometabolite analysis of [18F]B-23; assay type: in vivo, rat; settings: rat plasma, n=1
# Experimental: The metabolic stability of the tracer was studied in normal rats by determination of the relative amounts of parent tracer and radiometabolites in plasma and brain at 2 min and 10 min p.i. of the tracer. […] (n=1), blood was collected in lithium heparin containing tubes (4.5 mL LH PST tubes; BD vacutainer, BD, Franklin Lakes, USA) and stored on ice. Brain was dissected and rinsed with saline (decapitation was preferred since it was difficult to have the rat perfused already at 2 min p.i.). For the 10 min timepoint, rats (n=1) were injected with about 37 MBq of tracer and sacrificed at 10 min p.i by administering an overdose of Nembutal (CEVA Sante Animale, 200 mg/kg intraperitoneal). The rats were perfused by injection of saline into the left ventricle until the liver turned pale. During perfusion, blood was collected and stored on ice. Brain was isolated.
# For the plasma radiometabolite analysis, the blood was centrifugated for 10 min at 3000 rpm to separate the plasma. A volume of about 0.1 mL of plasma sample was isolated and spiked with about 10 μL of authentic non-radioactive reference material (1 mg/mL) for identification. The plasma was then injected onto an HPLC system consisting of a Chromolith Performance column (C18, 3 mm×100 mm, Merck) that was eluted with mixtures of 0.05 M NaOAc pH 5.5 (solvent A) and acetonitrile (solvent B). The following method was used for the analysis: isocratic elution with 100% A for 4 min at a flow rate of 0.5 mL/min, then linear gradient to 90% B by 14 min at a flow rate of 1 mL/min, and isocratic elution with a mixture of 10% A and 90% B at a flow rate of 1 mL/min until 17 min. After passing through an in-line UV detector (254 nm) and over a 3 in. NaI(Tl) scintillation detector connected to a single channel analyzer (Gabi box, Raytest, Straubenhardt Germany), the HPLC eluate was collected per minute using an automatic fraction collector. The radioactivity in all fractions was measured using an automated gamma counter. The peak corresponding to the intact tracer eluted at ˜11 min. Polar radiometabolite(s) were eluting from 1 to 3 min. Slightly more polar radiometabolites (relatively to the polarity of the intact tracer) were eluting just before the intact tracer. Faster metabolisation is observed in plasma compared to brain. At 2 min p.i., about 70% of the recovered radioactivity was present as intact tracer. Two more polar radiometabolites (M1, M3) were observed of which one (M3) was closely eluting to the intact tracer. At 10 min p.i., the presence of a large amount of a third polar metabolite (M2, also closely eluting to the parent compound) was observed which accounted for about 60% of the recovered radioactivity. At 10 min p.i., only ˜20% of the recovered radioactivity was still present as intact tracer.
# [2] = Biodistribution study of [18F]B-23; settings: normal rats, mean ± SD, n=3
# Experimental: The biodistribution study was carried out in male Wistar rats (body weight 320-370 g) at 2 min, 10 min and 30 min post injection (p.i.) (n=3/time point). […] Blood and major organs were collected in tared tubes and weighed. The radioactivity in blood, organs and other body parts was measured using an automated gamma counter. The distribution of radioactivity in different parts of the body at different time points p.i. of the tracer was calculated and expressed as percentage of injected dose (% ID), and as standardized uptake values (SUV) for the selected organs. % ID is calculated as counts per minute (cpm) in organ/total cpm recovered. SUVs are calculated as (radioactivity in cpm in organ/weight of the organ in g)/(total counts recovered/body weight in g). For calculation of total radioactivity in blood, blood mass was assumed to be 7% of the body mass.
# [3] = target: T1, Rat recombinant PDE10A (rPDE10A2) (Rattus norvegicus, UniProt Q9QYJ6); test: In vitro assay PDE10A (SPA, 3H-cAMP); assay type: biochemical; settings: for IC50: read-out: PIC50 PDE10 (converted)
# T1 construct: made in house; host or cells: Sf9 insect cells (baculovirus)
# T1 sequence (Q9QYJ6 1-794): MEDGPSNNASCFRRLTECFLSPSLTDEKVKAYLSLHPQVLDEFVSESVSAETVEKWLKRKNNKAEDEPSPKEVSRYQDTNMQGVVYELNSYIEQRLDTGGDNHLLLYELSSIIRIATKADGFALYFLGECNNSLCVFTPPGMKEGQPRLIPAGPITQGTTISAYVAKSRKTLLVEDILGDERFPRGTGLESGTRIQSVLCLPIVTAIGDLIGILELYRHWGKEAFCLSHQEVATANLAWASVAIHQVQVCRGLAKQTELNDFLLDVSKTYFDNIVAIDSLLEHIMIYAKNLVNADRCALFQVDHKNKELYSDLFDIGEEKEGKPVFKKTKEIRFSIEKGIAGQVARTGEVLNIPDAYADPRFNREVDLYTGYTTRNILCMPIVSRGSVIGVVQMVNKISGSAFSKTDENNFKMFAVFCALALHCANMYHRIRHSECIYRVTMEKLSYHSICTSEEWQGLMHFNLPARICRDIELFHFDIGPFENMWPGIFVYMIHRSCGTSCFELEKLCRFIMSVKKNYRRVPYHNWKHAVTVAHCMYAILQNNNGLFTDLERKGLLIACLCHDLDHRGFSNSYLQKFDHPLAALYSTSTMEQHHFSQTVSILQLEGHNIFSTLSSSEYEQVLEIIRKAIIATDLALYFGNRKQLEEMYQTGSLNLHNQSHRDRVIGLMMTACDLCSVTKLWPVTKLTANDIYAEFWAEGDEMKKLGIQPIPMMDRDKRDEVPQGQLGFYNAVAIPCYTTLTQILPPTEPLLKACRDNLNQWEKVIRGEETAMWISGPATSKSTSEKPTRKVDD
# [4] = system: cAMP and cGMP levels in the rat brain (hippocampus and striatum); test: Effect of PDE-inhibitors ex-vivo studies in rat: cAMP and cGMP levels in brain; settings: 10 mg/kg s.c., -1 h
# Experimental: Upon arrival, the animals (body weight 210-240 g) were housed in groups of 5 and fed normal chow at libitum.
# Compounds and/or solvent were administered either orally, subcutaneously or IV. […] After microwave, the rats were decapitated and the heads cooled immediately with ice cold physiological saline. […] 10 vol (w/v) of 0.1N HCl were added. The tissue was homogenized for 3 min at 30 Hz using a Tissuelyser from Qiagen.
# The homogenate was transferred into an Eppendorf tube (1.5 ml) and after centrifugation for 15 min at 1600 g in a pre-cooled (4C) Eppendorf centrifuge, the supernatant was collected and stored at −80° C. until analysis.
# The cAMP and cGMP levels were measured in the rat brain (hippocampus and striatum) to establish in vivo target engagement and central pharmacological effect of PDE2 inhibition.
# [5] = target: T2, Human recombinant PDE2A (hPDE2A) (Homo sapiens, UniProt O00408); test: In vitro assay PDE2A (SPA, 3H-cGMP); assay type: biochemical; settings: read-out: pIC50 PDE2 (converted)
# T2 construct: made in house; host or cells: Sf9 insect cells (baculovirus)
# T2 sequence (O00408 whole entry): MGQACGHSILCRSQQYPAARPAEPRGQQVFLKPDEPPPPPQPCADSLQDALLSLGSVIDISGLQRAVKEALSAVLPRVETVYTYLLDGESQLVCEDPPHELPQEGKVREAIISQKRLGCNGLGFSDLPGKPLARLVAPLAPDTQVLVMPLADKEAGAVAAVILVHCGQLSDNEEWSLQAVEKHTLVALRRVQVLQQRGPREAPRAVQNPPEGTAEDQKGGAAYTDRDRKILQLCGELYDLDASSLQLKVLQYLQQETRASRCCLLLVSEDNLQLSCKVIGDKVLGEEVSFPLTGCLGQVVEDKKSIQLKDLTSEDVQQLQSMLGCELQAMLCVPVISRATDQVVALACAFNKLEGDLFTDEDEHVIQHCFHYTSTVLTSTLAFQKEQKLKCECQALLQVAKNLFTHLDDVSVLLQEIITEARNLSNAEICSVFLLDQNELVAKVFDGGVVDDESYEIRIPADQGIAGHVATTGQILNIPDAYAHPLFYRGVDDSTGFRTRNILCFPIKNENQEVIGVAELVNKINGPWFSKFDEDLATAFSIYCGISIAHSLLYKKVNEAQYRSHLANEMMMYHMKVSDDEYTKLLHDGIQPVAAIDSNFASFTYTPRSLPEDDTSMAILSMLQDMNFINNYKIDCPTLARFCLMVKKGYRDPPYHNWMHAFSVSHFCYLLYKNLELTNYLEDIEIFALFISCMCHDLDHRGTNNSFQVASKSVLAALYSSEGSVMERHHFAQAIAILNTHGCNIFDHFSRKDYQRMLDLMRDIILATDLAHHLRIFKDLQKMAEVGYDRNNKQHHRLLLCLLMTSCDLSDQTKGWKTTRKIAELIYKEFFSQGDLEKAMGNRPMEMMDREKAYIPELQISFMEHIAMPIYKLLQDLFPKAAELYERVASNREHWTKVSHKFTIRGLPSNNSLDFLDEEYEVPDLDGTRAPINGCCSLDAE
# Experimental: Tested compounds were dissolved and diluted in 100% DMSO to a concentration 100 fold of the final concentration in the assay. Compound dilutions (0.4 μl) were added in 384 well plates to 20 μl of incubation buffer (50 mM Tris pH 7.8, 8.3 mM MgCl2, 1.7 mM EGTA). 10 μl of hPDE2A enzyme in incubation buffer was added and the reaction was started by addition of 10 μl substrate to a final concentration of 10 μM cGMP and 0.01 μCi ^3H-cGMP. The reaction was incubated for 45 minutes at room temperature. […] After sedimentation of the beads during 30 minutes the radioactivity was measured in a Perkin Elmer Topcount scintillation counter and results were expressed as cpm. For blanc values the enzyme was omitted from the reaction and replaced by incubation buffer. Control values were obtained by addition of a final concentration of 1% DMSO instead of compound.
# [6] = system: Apomorphine-induced agitation; test: Reversal of Apomorphine-induced Agitation in Rats (APO); assay type: in vivo, rat; settings: for SC Dose at max effect / SC Max effect (cumulative agitation score over 60 min) / SC LAD (lowest active dose): subcutaneous route; for SC Max effect (cumulative agitation score over 60 min) / PO Max effect (cumulative agitation score over 60 min): apomorphine 1.0 mg/kg i.v.; for SC LAD (lowest active dose) / PO LAD (lowest active dose): lowest dose at which ≥67% tested animals respond
# Experimental: Apomorphine (1.0 mg/kg, i.v.)-induced agitation was scored every 5 min over the first hour after injection of apomorphine. The score system was: (3) pronounced, (2) moderate, (1) slight, and (0) absent. […] For the present purpose, the cumulative agitation score over the whole 60-min observation period was used as a measure to describe the maximum effect (Max effect).
# [7] = -log IC50 expressed in mol/L, rPDE10A2, 60 nM cAMP
smiles,measurement,setting,value
"Cc1nc2ccc(CN3CCOCC3)cc2n2c(-c3c([18F])cccc3Cl)nnc12 [[18F]B-23, 1-[2-Chloro-6-(^18F)fluorophenyl]-4-methyl-8-(morpholin-4-ylmethyl)[1,2,4]triazolo[4,3-a]quinoxaline]",% in plasma Intact tracer,[1]; 2 min p.i.,70%
same,% in plasma Polar metabolite M1,[1]; 2 min p.i.,16%
same,% in plasma Polar metabolite M3,[1]; 2 min p.i.,14%
same,% in plasma Intact tracer,[1]; 10 min p.i.,18%
same,% in plasma Polar metabolite M1,[1]; 10 min p.i.,10%
same,% in plasma Polar metabolite M2,[1]; 10 min p.i.,61%
same,% in plasma Polar metabolite M3,[1]; 10 min p.i.,12%
same,% ID Blood,[2]; 2 min p.i.,6.69 ± 0.4 % ID
same,% ID Carcass,[2]; 2 min p.i.,42.54 ± 4.8 % ID
same,% ID Cerebellum,[2]; 2 min p.i.,0.096 ± 0.022 % ID
same,% ID Cerebrum total,[2]; 2 min p.i.,1.030 ± 0.130 % ID
same,% ID Cortex,[2]; 2 min p.i.,0.086 ± 0.017 % ID
same,% ID Heart,[2]; 2 min p.i.,0.81 ± 0.0 % ID
same,% ID Hippocampus,[2]; 2 min p.i.,0.036 ± 0.002 % ID
same,% ID Intestines,[2]; 2 min p.i.,9.51 ± 1.1 % ID
same,% ID Kidneys,[2]; 2 min p.i.,4.68 ± 0.7 % ID
same,% ID Liver,[2]; 2 min p.i.,30.79 ± 4.6 % ID
same,% ID Lungs,[2]; 2 min p.i.,2.27 ± 1.2 % ID
same,% ID Rest of cerebrum,[2]; 2 min p.i.,0.809 ± 0.130 % ID
same,% ID Spleen + Pancreas,[2]; 2 min p.i.,1.57 ± 0.1 % ID
same,% ID Stomach,[2]; 2 min p.i.,2.44 ± 0.3 % ID
same,% ID Striatum,[2]; 2 min p.i.,0.098 ± 0.010 % ID
same,% ID Urine,[2]; 2 min p.i.,0.25 ± 0.1 % ID
same,% ID Blood,[2]; 10 min p.i.,6.27 ± 0.5 % ID
same,% ID Carcass,[2]; 10 min p.i.,37.39 ± 4.9 % ID
same,% ID Cerebellum,[2]; 10 min p.i.,0.020 ± 0.002 % ID
same,% ID Cerebrum total,[2]; 10 min p.i.,0.212 ± 0.006 % ID
same,% ID Cortex,[2]; 10 min p.i.,0.016 ± 0.004 % ID
same,% ID Heart,[2]; 10 min p.i.,0.23 ± 0.0 % ID
same,% ID Hippocampus,[2]; 10 min p.i.,0.006 ± 0.001 % ID
same,% ID Intestines,[2]; 10 min p.i.,10.97 ± 1.5 % ID
same,% ID Kidneys,[2]; 10 min p.i.,6.02 ± 1.2 % ID
same,% ID Liver,[2]; 10 min p.i.,37.83 ± 3.3 % ID
same,% ID Lungs,[2]; 10 min p.i.,0.68 ± 0.1 % ID
same,% ID Rest of cerebrum,[2]; 10 min p.i.,0.159 ± 0.006 % ID
same,% ID Spleen + Pancreas,[2]; 10 min p.i.,0.42 ± 0.0 % ID
same,% ID Stomach,[2]; 10 min p.i.,2.77 ± 0.8 % ID
same,% ID Striatum,[2]; 10 min p.i.,0.031 ± 0.005 % ID
same,% ID Urine,[2]; 10 min p.i.,0.61 ± 0.5 % ID
same,% ID Blood,[2]; 30 min p.i.,4.10 ± 0.6 % ID
same,% ID Carcass,[2]; 30 min p.i.,23.75 ± 1.9 % ID
same,% ID Cerebellum,[2]; 30 min p.i.,0.011 ± 0.005 % ID
same,% ID Cerebrum total,[2]; 30 min p.i.,0.084 ± 0.026 % ID
same,% ID Cortex,[2]; 30 min p.i.,0.006 ± 0.003 % ID
same,% ID Heart,[2]; 30 min p.i.,0.12 ± 0.0 % ID
same,% ID Hippocampus,[2]; 30 min p.i.,0.003 ± 0.001 % ID
same,% ID Intestines,[2]; 30 min p.i.,19.75 ± 5.6 % ID
same,% ID Kidneys,[2]; 30 min p.i.,8.24 ± 0.3 % ID
same,% ID Liver,[2]; 30 min p.i.,29.30 ± 4.8 % ID
same,% ID Lungs,[2]; 30 min p.i.,0.46 ± 0.0 % ID
same,% ID Rest of cerebrum,[2]; 30 min p.i.,0.064 ± 0.024 % ID
same,% ID Spleen + Pancreas,[2]; 30 min p.i.,0.32 ± 0.1 % ID
same,% ID Stomach,[2]; 30 min p.i.,4.81 ± 0.3 % ID
same,% ID Striatum,[2]; 30 min p.i.,0.012 ± 0.001 % ID
same,% ID Urine,[2]; 30 min p.i.,10.80 ± 1.2 % ID
CCCCOc1ccc(Cl)c(-c2nnc3c(C)nc4ccc(CN(C)C)cc4n23)c1 [Compound B-88],IC50,[3]; [7],2.14 µM
same,Hippocampus cAMP (% of Control),[4],117 ± 20 % of Control
same,Hippocampus cGMP (% of Control),[4],150 ± 42 % of Control
same,Striatum cAMP (% of Control),[4],88 ± 12 % of Control
same,Striatum cGMP (% of Control),[4],121 ± 20 % of Control
CCCCOc1cncc(-c2nnc3c(C)nc4ccc(CN(C)C)cc4n23)c1 [Compound B-197],PIC50 PDE10,[3]; [7],5.03
same,Hippocampus cAMP (% of Control),[4],122 ± 10 % of Control
same,Hippocampus cGMP (% of Control),[4],104 ± 32 % of Control
same,Striatum cAMP (% of Control),[4],89 ± 6 % of Control
same,Striatum cGMP (% of Control),[4],128 ± 26 % of Control
"Cc1nc2ccc(OCCc3ccccn3)cc2n2c(-c3ccccc3Cl)nnc12 [Compound B-15, 1-(2-Chlorophenyl)-4-methyl-8-(2-pyridin-2-ylethoxy) [1,2,4]triazolo[4,3-a]quinoxaline]",IC50,[5],0.00871 µM
same,IC50,[3],0.0162 µM
same,SC Dose at max effect,[6],10 mg/kg
same,SC Max effect (cumulative agitation score over 60 min),[6],10
same,SC LAD (lowest active dose),[6],2.5 mg/kg
COCCNc1ccc2nc(C)c3nnc(-c4ccccc4Cl)n3c2c1 [Compound B-67],IC50,[5],0.00617 µM
same,IC50,[3],0.0155 µM
same,PO Dose at Max Effect,[6],10 mg/kg
same,PO Max effect (cumulative agitation score over 60 min),[6],21
same,PO LAD (lowest active dose),[6],> 10 mg/kg
Cc1nc2ccc(CN3CCC(O)CC3)cc2n2c(-c3ccccc3Cl)nnc12 [Compound B-81],IC50,[5],0.00955 µM
same,IC50,[3]; [7],0.0372 µM
same,SC Dose at max effect,[6],10 mg/kg
same,SC Max effect (cumulative agitation score over 60 min),[6],19
same,SC LAD (lowest active dose),[6],10 mg/kg
Cc1nc2ccc(C(=O)NCCF)cc2n2c(-c3ccccc3Cl)nnc12 [Compound B-40],IC50,[5],0.00102 µM
same,IC50,[3],0.0186 µM
same,PO Dose at Max Effect,[6],10 mg/kg
same,PO Max effect (cumulative agitation score over 60 min),[6],22
same,PO LAD (lowest active dose),[6],> 10 mg/kg
Cc1nc2ccc(C(=O)NCCN3CCCC3)cc2n2c(-c3ccccc3Cl)nnc12 [Compound B-48],IC50,[5],0.00209 µM
same,IC50,[3],0.0617 µM
same,SC Dose at max effect,[6],10 mg/kg
same,SC Max effect (cumulative agitation score over 60 min),[6],24
same,SC LAD (lowest active dose),[6],> 10 mg/kg
Cc1nc2ccc(C(=O)NCCN3CCCCC3)cc2n2c(-c3ccccc3Cl)nnc12 [Compound B-45],IC50,[5],0.00195 µM
same,IC50,[3],0.0741 µM
same,SC Dose at max effect,[6],10 mg/kg
same,SC Max effect (cumulative agitation score over 60 min),[6],21
same,SC LAD (lowest active dose),[6],> 10 mg/kg
